Results as given in patent US8445444B2, “Compositions and methods for diagnosing, treating, and preventing prostate conditions” (Phigenix, Inc., priority 2007, dated 2013).
“Also recorded” adds a separate entry of the source.

What was measured:
Assay type in all cases: cell-based, human
[1] = test system: PC3; experiment: Phase contrast microscopy of cell growth; details: PC3, 48 h DEFB1 induction
Protocol: (§1) Microscopic Analysis: Cell morphology was analyzed by phase contrast microscopy. DU145, PC3 and LNCaP cells containing no vector, empty plasmid or DEFB1 plasmid were seeded onto 6 well culture plates (BD Falcon, USA). The following day plasmid-containing cells were induced for a period of 48 h with media containing 10 μM Ponasterone A, while control cells received fresh media. The cells were then viewed under an inverted Zeiss IM 35 microscope (Carl Zeiss, Germany). Phase contrast pictures of a field of cells were obtained using the SPOT Insight Mosaic 4.2 camera (Diagnostic Instruments, USA). Cells were examined by phase contrast microscopy under 32× magnification and digital images were stored as uncompressed TIFF files and exported into Photoshop CS software (Adobe Systems, San Jose, Calif.) for image processing and hard copy presentation.
(§2) Phase Contrast Microscopy: The effect of PAX2 knock-down on cell growth was analyzed by phase contrast microscopy. Here, 1-2×10^4 cells were seeded onto 6 well culture plates (BD Falcon, USA). The following day cells were treated with media only, negative control non-specific siRNA or PAX2 siRNA and allowed to incubate for six days. The cells were then viewed under an inverted Zeiss IM 35 microscope (Carl Zeiss, Germany) at 32× magnification. Phase contrast pictures of a field of cells were obtained using the SPOT Insight Mosaic 4.2 camera (Diagnostic Instruments, USA).
(§3) Phase contrast microscopy: The effect of PAX2 knockdown on cell number was analyzed by phase contrast microscopy. Here, 1-2×10^4 cells were seeded overnight onto six-well culture plates (BD Falcon, USA). Next the cells were treated with media only, negative control non-specific siRNA or PAX2 siRNA and allowed to incubate for 6 days. The cells were then viewed under an inverted Zeiss IM 35 microscope (Carl Zeiss, Germany). Phase contrast pictures of a field of cells were obtained using the SPOT Insight Mosaic 4.2 camera (Diagnostic Instruments, USA).

[2] = test system: DU145; experiment: Phase contrast microscopy of cell growth; details: DU145, 48 h DEFB1 induction
Protocol: as §1, §2, §3

[3] = test system: LNCaP; experiment: Phase contrast microscopy of cell growth; details: 48 h DEFB1 induction
Protocol: as §1, §2, §3

[4] = test system: PC3/AR+; experiment: MTT cell viability assay; details: PC3/AR+ compared with PC3
Protocol: MTT cell viability assay: To examine the effects of hBD-1 on cell growth, metabolic 3-[4,5-dimethylthiazol-2-yl]-2,5-diphenyl tetrazolium bromide (MTT) assay was performed. DU145, LNCaP, PC3 and PC3/AR+ cells co-transfected with pvgRXR plasmid and pIND/hBD-1 construct or control pvgRXR plasmid were seeded onto a 96-well plate at 1-5×10^3 cells per well. Twenty-four hours after seeding, fresh growth medium was added containing 10 μM Pon A daily to induce hBD-1 expression for 24, 48 and 72 h after which the MTT assay was performed according to the manufacturer's instructions (Promega). Reactions were performed three times in triplicate.

[5] = test system: PC3; experiment: Pan-caspase detection (FAM-VAD-FMK, confocal); details: PC3, 24 h DEFB1 induction
Protocol: Detection of caspase activity in the prostate cancer cell lines was performed using APO LOGIX™ Carboxyfluorescin Caspase detection kit (Cell Technology, Mountain View, Calif.). Active caspases were detected through the use of a FAM-VAD-FMK inhibitor that irreversibly binds to active caspases. Briefly, DU 145 and PC3 cells (1.5-3×10^5) containing the DEFB1 expression system were plated in 35 mm glass bottom microwell dishes (Matek, Ashland, Mass.) and treated for 24 hours with media only or with media containing PonA as previously described. Next, 10 μl of a 30× working dilution of carboxyfluorescein labeled peptide fluoromethyl ketone (FAM-VAD-FMK) was added to 300 μl of media and added to each 35 mm dish. Cells were then incubated for 1 hour at 37° C. under 5% CO2. […] The fluorescent signal was analyzed using a confocal microscope (Zeiss LSM 5 Pascal) and a 63×DIC oil lens with a Vario 2 RGB Laser Scanning Module.
Pan-Caspase Detection: Detection of caspase activity in the prostate cancer cell lines was performed using APO LOGIX™ Carboxyfluorescin Caspase detection kit (Cell Technology, Mountain View, Calif.). Active caspases were detected through the use of a FAM-VAD-FMK inhibitor that irreversibly binds to active caspases. […] The fluorescent signal was analyzed using a confocal microscope (Zeiss LSM 5 Pascal) and a 63×DIC oil lens with a Vario 2 RGB Laser Scanning Module. […]

DEFB1: human beta defensin-1 expressed from the ecdysone inducible pIND/DEFB1 construct, induced with Ponasterone A (DHYNCVSSGGQCLYSACPIFTKIQGTCYRGKAKCCK; UniProt P60022 33-68, looked up)
cell number [1]: significant reduction in cell number | cell number [2]: significant reduction in cell number | cell proliferation [3]: no effect on cell proliferation | hBD-1 cytotoxicity with ectopic AR expression [4]: no difference between PC3/AR+ and PC3 cells | caspase activity [5]: revealed caspase activity; also recorded: green staining
